Tested on: IGROV1 complex spheroids (HUVEC, MSC), viability % test/control
Experiment: Anticancer human tumor IGROV1 cell line growth inhibition [GQUAD];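 note: spheroids exposed to compounds for 7 days before readout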;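 for viability, T/C: 100% = DMSO vehicle control viability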
Details: for IC50: curve of first compound; for viability, T/C: stronger effect = lower value; active = viability on the fitted dose curve at most 10% of control; inactive = the rest
How it was run: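 Multi-cell-type spheroids of tumor cells with HUVEC and mesenchymal stem cells, treated with drug combinations. Concentrations descend in half-log steps from near clinical Cmax, or from 10 microM where Cmax is unknown; viability read-out.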

[1] = second compound 0.0316 µM, first compound 0.0316 µM
[2] = second compound 0.0316 µM, first compound 0.1 µM
[3] = second compound 0.0316 µM, first compound 0.316 µM
[4] = second compound 0.0316 µM, first compound 1 µM
[5] = second compound 0.0316 µM, first compound 3.16 µM
[6] = second compound 0.0316 µM, first compound 10 µM
[7] = second compound 0.1 µM, first compound 0.0316 µM
[8] = second compound 0.1 µM, first compound 0.1 µM
[9] = second compound 0.1 µM, first compound 0.316 µM
[10] = second compound 0.1 µM, first compound 1 µM
[11] = second compound 0.1 µM, first compound 3.16 µM
[12] = second compound 0.1 µM, first compound 10 µM
[13] = second compound 0.316 µM, first compound 0.0316 µM
[14] = second compound 0.316 µM, first compound 0.1 µM
[15] = second compound 0.316 µM, first compound 0.316 µM
[16] = second compound 0.316 µM, first compound 1 µM
[17] = second compound 0.316 µM, first compound 3.16 µM
[18] = second compound 0.316 µM, first compound 10 µM
[19] = second compound 1 µM, first compound 0.0316 µM
[20] = second compound 1 µM, first compound 0.1 µM
[21] = second compound 1 µM, first compound 0.316 µM
[22] = second compound 1 µM, first compound 1 µM
[23] = second compound 1 µM, first compound 3.16 µM
[24] = second compound 1 µM, first compound 10 µM
[25] = second compound 3.16 µM, first compound 0.0316 µM
[26] = second compound 3.16 µM, first compound 0.1 µM
[27] = second compound 3.16 µM, first compound 0.316 µM
[28] = second compound 3.16 µM, first compound 1 µM
[29] = second compound 3.16 µM, first compound 3.16 µM
[30] = second compound 3.16 µM, first compound 10 µM
[31] = second compound 10 µM, first compound 0.0316 µM
[32] = second compound 10 µM, first compound 0.1 µM
[33] = second compound 10 µM, first compound 0.316 µM
[34] = second compound 10 µM, first compound 1 µM
[35] = second compound 10 µM, first compound 3.16 µM
[36] = second compound 10 µM, first compound 10 µM

C=CCn1c(=O)c2cnc(Nc3ccc(N4CCN(C)CC4)cc3)nc2n1-c1cccc(C(C)(C)O)n1 + Cc1[nH]c2ccc(F)cc2c1-c1nc2c3cccnc3c3ncccc3c2[nH]1
141 nM: IC50 (second compound 0.0316 µM)
inactive: viability, T/C [1] 98.8% | viability, T/C [2] 66.5% | viability, T/C [3] 10.9% | viability, T/C [7] 98.9% | viability, T/C [8] 72.9% | viability, T/C [9] 12.7% | viability, T/C [13] 40.6% | viability, T/C [14] 19.9%
active: viability, T/C [4] 3.13% | viability, T/C [5] 2.59% | viability, T/C [6] 2.44% | viability, T/C [10] 2.29% | viability, T/C [11] 3.17% | viability, T/C [12] 2.44% | viability, T/C [15] 2.19% | viability, T/C [16] 1.65% | viability, T/C [17] 2.64% | viability, T/C [18] 1.76% | viability, T/C [19] 3.28% | viability, T/C [20] 3.17% | viability, T/C [21] 2.16% | viability, T/C [22] 2.04% | viability, T/C [23] 2.4% | viability, T/C [24] 1.76% | viability, T/C [25] 3.09% | viability, T/C [26] 2.89% | viability, T/C [27] 2.25% | viability, T/C [28] 1.95% | viability, T/C [29] 2.45% | viability, T/C [30] 1.48% | viability, T/C [31] 3.85% | viability, T/C [32] 2.84% | viability, T/C [33] 2.5% | viability, T/C [34] 2.14% | viability, T/C [35] 2.23% | viability, T/C [36] 1.57%
< 31.6 nM: IC50 (second compound 0.316 µM) | IC50 (second compound 1 µM) | IC50 (second compound 3.16 µM) | IC50 (second compound 10 µM)
155 nM: IC50 (second compound 0.1 µM)

Cc1[nH]c2ccccc2c1CCNCc1ccc(/C=C/C(=O)NO)cc1 + Cc1[nH]c2ccc(F)cc2c1-c1nc2c3cccnc3c3ncccc3c2[nH]1
10.6 nM: IC50 (second compound 0.316 µM)
< 0.999 nM: IC50 (second compound 1 µM) | IC50 (second compound 3.16 µM) | IC50 (second compound 10 µM)
active: viability, T/C (second compound 0.0316 µM, first compound 0.0999 µM) 4.14% | viability, T/C [3] 0.24% | viability, T/C (second compound 0.1 µM, first compound 0.0999 µM) 5.9% | viability, T/C [9] 0.36% | viability, T/C (second compound 0.316 µM, first compound 0.0999 µM) 5.96% | viability, T/C [15] 0.21% | viability, T/C (second compound 1 µM, first compound 0.000999 µM) 3.99% | viability, T/C (second compound 1 µM, first compound 0.00316 µM) 3.36% | viability, T/C (second compound 1 µM, first compound 0.00999 µM) 2.02% | viability, T/C [19] 2.26% | viability, T/C (second compound 1 µM, first compound 0.0999 µM) 2.15% | viability, T/C [21] 0.14% | viability, T/C (second compound 3.16 µM, first compound 0.000999 µM) 2.38% | viability, T/C (second compound 3.16 µM, first compound 0.00316 µM) 2.86% | viability, T/C (second compound 3.16 µM, first compound 0.00999 µM) 1.81% | viability, T/C [25] 1.14% | viability, T/C (second compound 3.16 µM, first compound 0.0999 µM) 0.49% | viability, T/C [27] 0.09% | viability, T/C (second compound 10 µM, first compound 0.000999 µM) 3.6% | viability, T/C (second compound 10 µM, first compound 0.00316 µM) 3.82% | viability, T/C (second compound 10 µM, first compound 0.00999 µM) 2.17% | viability, T/C [31] 1.25% | viability, T/C (second compound 10 µM, first compound 0.0999 µM) 0.54% | viability, T/C [33] 0.17%
inactive: viability, T/C (second compound 0.0316 µM, first compound 0.000999 µM) 107% | viability, T/C (second compound 0.0316 µM, first compound 0.00316 µM) 88.2% | viability, T/C (second compound 0.0316 µM, first compound 0.00999 µM) 80% | viability, T/C [1] 40.3% | viability, T/C (second compound 0.1 µM, first compound 0.000999 µM) 91.8% | viability, T/C (second compound 0.1 µM, first compound 0.00316 µM) 102% | viability, T/C (second compound 0.1 µM, first compound 0.00999 µM) 64.4% | viability, T/C [7] 32.3% | viability, T/C (second compound 0.316 µM, first compound 0.000999 µM) 61.7% | viability, T/C (second compound 0.316 µM, first compound 0.00316 µM) 67.6% | viability, T/C (second compound 0.316 µM, first compound 0.00999 µM) 48.2% | viability, T/C [13] 28.6%
22.8 nM: IC50 (second compound 0.0316 µM)
17.6 nM: IC50 (second compound 0.1 µM)

CC1COCCN1c1cc(-c2ccnn2C)c2ccnc(-c3ccn[nH]3)c2n1 (stereo not drawn) + Cc1cnc(CNC(=O)c2c(=O)c3ccc(N4CCCN(C)CC4)nc3n3c2sc2ccccc23)cn1
< 31.6 nM: IC50 (second compound 0.0316 µM) | IC50 (second compound 0.1 µM) | IC50 (second compound 0.316 µM) | IC50 (second compound 1 µM) | IC50 (second compound 3.16 µM) | IC50 (second compound 10 µM)
active: viability, T/C [3] 7.59% | viability, T/C [4] 5.06% | viability, T/C [5] 4.01% | viability, T/C [6] 2.97% | viability, T/C [8] 7.36% | viability, T/C [9] 6.21% | viability, T/C [10] 5.27% | viability, T/C [11] 3.92% | viability, T/C [12] 4.13% | viability, T/C [13] 9% | viability, T/C [14] 7.55% | viability, T/C [15] 6.04% | viability, T/C [16] 5.16% | viability, T/C [17] 4.14% | viability, T/C [18] 3.5% | viability, T/C [19] 8.34% | viability, T/C [20] 6.08% | viability, T/C [21] 5.92% | viability, T/C [22] 5.14% | viability, T/C [23] 3.89% | viability, T/C [24] 3% | viability, T/C [25] 7.12% | viability, T/C [26] 7.74% | viability, T/C [27] 7.15% | viability, T/C [28] 5.94% | viability, T/C [29] 3.88% | viability, T/C [30] 2.53% | viability, T/C [31] 6.76% | viability, T/C [32] 5.78% | viability, T/C [33] 7.42% | viability, T/C [34] 3.84% | viability, T/C [35] 4.68% | viability, T/C [36] 2.74%
inactive: viability, T/C [1] 16.8% | viability, T/C [2] 9.68% | viability, T/C [7] 10.3%

CC1COCCN1c1cc(C2(S(C)(=N)=O)CC2)nc(-c2ccnc3[nH]ccc23)n1 (stereo not drawn) + Cc1cnc(CNC(=O)c2c(=O)c3ccc(N4CCCN(C)CC4)nc3n3c2sc2ccccc23)cn1
inactive: viability, T/C [1] 71.7% | viability, T/C [2] 62.6% | viability, T/C [3] 43.3% | viability, T/C [4] 15.1% | viability, T/C [5] 31.4% | viability, T/C [6] 5.8% | viability, T/C [7] 35.4% | viability, T/C [8] 36% | viability, T/C [9] 16.5% | viability, T/C [10] 10.8% | viability, T/C [13] 26.8% | viability, T/C [14] 20.6% | viability, T/C [15] 13.7% | viability, T/C [16] 7.83% | viability, T/C [19] 13.3% | viability, T/C [20] 17.7% | viability, T/C [21] 13.3% | viability, T/C [22] 8.94% | viability, T/C [25] 11.9% | viability, T/C [26] 10.2%
205 nM: IC50 (second compound 0.0316 µM)
active: viability, T/C [11] 12.8% | viability, T/C [12] 4.75% | viability, T/C [17] 13.6% | viability, T/C [18] 4.61% | viability, T/C [23] 11.2% | viability, T/C [24] 6.04% | viability, T/C [27] 10.9% | viability, T/C [28] 8.09% | viability, T/C [29] 10.3% | viability, T/C [30] 5.89% | viability, T/C [31] 9.84% | viability, T/C [32] 9.08% | viability, T/C [33] 9.32% | viability, T/C [34] 8.94% | viability, T/C [35] 9.55% | viability, T/C [36] 4.74%
< 31.6 nM: IC50 (second compound 0.1 µM) | IC50 (second compound 0.316 µM) | IC50 (second compound 1 µM) | IC50 (second compound 3.16 µM) | IC50 (second compound 10 µM)

From PubChem BioAssay AID2060486 (Molecular Pharmacology Branch, DTP, NCI, 2025)
